Measurements published in patent publication US10450260B2, “NO- and H2S-releasing compounds” (RESEARCH FOUNDATION OF THE CITY UNIVERSITY OF NEW YORK, priority 2011, dated 2019).
“Also recorded” adds a separate entry of the source. Read-outs that look alike come from different tables or passages of the source.

Key:
COX-2 = assay: Western blot of COX-2 in paw exudates; assay type: in vivo, rat; conditions: NOSH-1 at 2 doses one hour before carrageenan
Experimental: (§1) Exudates (oedema fluid) and some tissue were homogenized in lysis buffer (0.1% Triton X-100, 50 μM pepstatin, 0.2 mM leupeptin, 1 μg/mL aprotinin, 10 mg/ml phenylmethylsulfonyl fluoride, 50 mM Tris, and 10 mM EDTA). Samples were then centrifuged, and the protein concentration of the supernatant was determined by colorimetric assay (Bio-Rad, Hercules, Calif.). Protein (30 μg) was separated on a 10% polyacrylamide gel and then transferred to a nitrocellulose membrane (Bio-Rad, Hercules, Calif.). Proteins were probed with monoclonal mouse antibody against COX-1 and COX-2 (1:500; Cayman Chemical, Ann Arbor, Mich.). The membrane was then incubated with a goat anti-mouse IgG secondary antibody conjugated to horseradish peroxidase (Santacruz Biotechnology, Santa Cruz, Calif.). A chemiluminescence reagent (Amersham Pittsburg, Pa.) was added to visualize the labeling according to the manufacturer's instructions.

HT-29 cells = assay: LDH release assay; assay type: cell-based, human
Experimental: For determination of lactate dehydrogenase (LDH) activity, HT-29 cells (1×10^5 cells/well) were incubated in 96-well plates with different concentrations of NOSH-1. After incubation for 2, 4, 8, 12 and 24 h, LDH activity in the supernatant was assessed using the LDH Cytotoxicity Assay Kit (Cayman Chemical Ann Arbor, Mich.), according to the manufacturer's instructions. Cytotoxicity was calculated as a percentage based on the LDH activity released from cells that had been treated with NOSH-1 compared with LDH activity from cultures incubated with Triton X-100. The % of LDH release was determined using the formula (E−C)/(T−C)×100, where E is the experimental absorbance of cell cultures, C is the control absorbance of cell-free culture medium, and T is the absorbance corresponding to the maximal (100%) LDH release of Triton-lysed cells.^1

PGE2 = PGE2 in rat paw exudates; assay type: in vivo; conditions: for PGE2 levels in the paw exudate versus vehicle (FIG. 2B): P<0.01, four rats in each group
Experimental: Rats were euthanized by asphyxiation in a CO2 chamber. […] The absorbance at 412 nm was measured after 1 h incubation at room temperature. […] Proteins were determined by Biorad assay.
Proteins were determined by Biorad assay.

COX-1 = assay: Western blot of COX-1 in paw exudates; assay type: in vivo, rat; conditions: NOSH-1 at 2 doses one hour before carrageenan
Experimental: as §1

[1] = test system: carrageenan-induced paw edema; assay: Carrageenan-induced rat paw edema; assay type: in vivo; conditions: for paw volume versus vehicle treated rats (FIG. 2A): P<0.05, four rats in each group; for anti-inflammatory effect on paw swelling compared with parent NSAID: equimolar oral doses (Example 12)
Experimental: Carrageenan (1%, 100 μL, suspended in sterile saline solution, type IV lamda; Sigma-Aldrich) was subcutaneously injected into the plantar surface of the right hind paw in rat following the protocol described by Winter et al., Proceedings of the Society for Experimental Biology and Medicine 1962, 111:544-547. Paw volume was measured using a water displacement plethysmometer (model 520; IITC/Life Sciences Instruments, Woodland Hills, Calif.) before carrageenan injection and thereafter at 1-h intervals for 6 h. The paw volume measured just before carrageenan injection was used as the control volume. Data are expressed as the change in paw volume (milliliters) at each time point.
Carrageenan, type IV lambda (1%, 100 μL suspended in sterile saline solution), from Sigma Chemicals (St. Louis, Mo.) was subcutaneously injected into the plantar surface of the right hind paw in rat following the protocol described by Winter et al., Proceedings of the Society for Experimental Biology and Medicine 1962, 111:544-547. Paw volume was measured using a water displacement plethysmometer (Model 520, IITC/Life Sciences Instruments, Woodland Hills, Calif.) before carrageenan injection and thereafter at 1 hour intervals for 5 hours. The paw volume measured just prior to carrageenan injection was used as the control volume. Data are expressed as the change in paw volume (mL) at each time point.

LPS-induced fever = assay: Anti-pyretic activity, LPS-induced fever; assay type: in vivo, rat; conditions: 2-4 hours after LPS injection
Experimental: To induce fever, LPS (50 μg/kg, Sigma, St. Louis, Mo., USA) was administered intraperitoneally to the animals an hour before the administration of test drugs as described previously (Pinto L et al., Pharm Pharmacol Communication 1988: 4:502-505). Rectal temperature was measured by inserting a lubricated thermistor probe (external diameter: 3 mm) 2.8 cm into the rectum of the animal. […] Rectal temperatures were taken every hour for 5 hours.

[2] = test system: HT-29 human colon cancer cells; assay: MTT cell growth inhibition, HT-29; assay type: cell-based; conditions: HT-29 cells; for IC50: Homo sapiens

Which results are given for `O=C(CCCO[N+](=O)[O-])Oc1ccccc1C(=O)Oc1ccc(-c2cc(=S)ss2)cc1` [NOSH-1, 4-(3-thioxo-3H-1,2-dithiol-5-yl)phenyl 2-((4-(nitrooxy)butanoyl)oxy)benzoate]?
COX-2 expression in paw exudates induced by carrageenan (COX-2): inhibited induction; also recorded: dose-dependently inhibited; LDH release (HT-29 cells; 4-times its IC50, 24 hours): less than 10%; LDH release (HT-29 cells; 4-times its IC50, shorter durations (2, 4, 6, 8 hours)): 1-5%; LDH release (HT-29 cells; at its IC50, shorter durations (2, 4, 6, 8 hours)): 0.5-4%; PGE2 levels in paw exudate (PGE2; NOSH-1 0.21 mmol/kg): 42 ± 3 pg/mg; PGE2 levels in paw exudate (PGE2; NOSH-1 0.52 mmol/kg): 21 ± 4 pg/mg; PGE2 levels in the paw exudate versus vehicle (FIG. 2B) (PGE2): significant reduction in PGE2 levels; COX-1 expression in paw exudates induced by carrageenan (COX-1): inhibited induction; also recorded: inhibited to the same extent; paw volume versus vehicle treated rats (FIG. 2A) [1]: significant reduction in paw volume at all time points; change in paw volume ΔV ([1]; high dose NOSH-1 0.52 mmol/kg, after 1-2 hours): 0.45 mL; change in paw volume ΔV ([1]; high dose NOSH-1 0.52 mmol/kg, over the next 4 hours (to 6 h)): 0.35 mL; change in paw volume ΔV ([1]; low dose NOSH-1 0.21 mmol/kg, after 1 hour): 0.5 mL; change in paw volume ΔV ([1]; low dose NOSH-1 0.21 mmol/kg, by 3 hours): 0.6 mL; change in paw volume ΔV ([1]; low dose NOSH-1 0.21 mmol/kg, over the next 3 hours (to 6 h)): ~0.4 mL; reduction of LPS-induced fever compared with parent NSAID (LPS-induced fever): appeared to be better in reducing LPS-induced fever; Potency enhancement (ratio of IC50 values ASA/NOSH-1), 48 h ([2]; 48 h): ~125,000 fold; Potency enhancement (ratio of IC50 values ASA/NOSH-1), 72 h ([2]; 72 h): ~250,000 fold; IC50 ([2]; 48 h, read-out: IC50, 48 h): 0.0197 ± 0.0033 µM; IC50 ([2]; 72 h, read-out: IC50, 72 h): 0.0077 ± 0.0022 µM

`CC(=O)Oc1ccccc1C(=O)O` [ASA, aspirin, reference compound] was tested. Which “PGE2 levels in the paw exudate versus vehicle (FIG. 2B)” value (PGE2) did it give?
Its value is “significant reduction in PGE2 levels”.

What about the “PGE2 levels in paw exudate” value (PGE2; aspirin 0.21 mmol/kg, control 82±2 pg/mg) of the same molecule?
The value was 12±3 pg/mg protein.

And the “change in paw volume ΔV” value ([1]; ASA 0.56 mmol/kg, after 6 hours)?
Its value is about 0.35 mL.

And the “change in paw volume ΔV” value ([1]; ASA 0.56 mmol/kg, at 1 hour)?
The value was 0.4 mL.

What about the “change in paw volume ΔV” value ([1]; ASA 0.56 mmol/kg, over the next 2 hours (after 1 h)) of the same molecule?
Its value is about 0.35 mL.

What about the “paw volume versus vehicle treated rats (FIG. 2A)” value [1] of the same molecule?
The value was “significant reduction in paw volume at all time points”.

What about the IC50 ([2]; 48 h, read-out: IC50, 48 h) of the same molecule?
The IC50 was 2500 µM.

And the IC50 ([2]; 72 h, read-out: IC50, 72 h)?
The IC50 was 2000 µM.

How did the “anti-inflammatory effect on paw swelling compared with parent NSAID” value [1] turn out when `CC1=C(CC(=O)Oc2ccc(OC(=O)CCCO[N+](=O)[O-])c(C(=O)Oc3ccc(-c4cc(=S)ss4)cc3)c2)c2cc(F)ccc2/C1=C/c1ccc([S+](C)[O-])cc1` (stereo not drawn) [NOSH-8, (E)-4-(3-thioxo-3H-1,2-dithiol-5-yl)phenyl 5-(2-(5-fluoro-2-methyl-1-(4-(methylsulfinyl)benzylidene)-1H-inden-3-yl)acetoxy)-2-((4-(nitrooxy)butanoyl)oxy)benzoate] was run?
The value was “the same anti-inflammatory response as sulindac”.

What does the source list for `CC(C(=O)Oc1ccc(-c2cc(=S)ss2)cc1)c1ccc2cc(OC(=O)CCCO[N+](=O)[O-])ccc2c1` (stereo not drawn) [NOSH-7, 6-(1-oxo-1-(4-(3-thioxo-3H-1,2-dithiol-5-yl)phenoxy)propan-2-yl)naphthalen-2-yl 4-(nitrooxy)butanoate]?
anti-inflammatory effect on paw swelling compared with parent NSAID [1]: even lower inflammatory response compared to naproxen; reduction of LPS-induced fever compared with parent NSAID (LPS-induced fever): appeared to be better in reducing LPS-induced fever
